# Measurements reported in US7335355B2, “Antimicrobial agent” (Hansa Medical AB, priority 2000, dated 2008).
# Like-named read-outs stand apart in the source and are kept apart here.
# How the values were obtained:
# α-defensin 1 = biological target: T1, α-defensin 1 (Homo sapiens, UniProt P59665); test: Slot-binding assay: radioiodinated DS binding to blotted α-defensin 1, competition by unlabelled polysaccharides; settings: unlabelled polysaccharide 2 mg/ml, ~100-fold excess
# T1 construct: purchased Bachem, Switzerland
# T1 sequence (P59665 65-94 limits assumed): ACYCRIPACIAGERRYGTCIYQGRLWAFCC
# Protocol: 0.2-5 μg α-defensin 1 was blotted onto nitrocellulose and probed with radioiodinated dermatan sulfate (DS).
# E. faecalis gelatinase [1] = biological target: T2, E. faecalis gelatinase (Enterococcus faecalis, UniProt Q833V7); type: biochemical; settings: 1 μg LL-37, 3 mU, 1 hour and 6 hours
# T2 construct: The E. faecalis strain contained gelatinase and supernatants were used directly; made in house; host or cells: Enterococcus faecalis isolate from a chronic venous wound (natural producer); unpurified culture supernatant
# T2 sequence (Q833V7 whole entry, looked up): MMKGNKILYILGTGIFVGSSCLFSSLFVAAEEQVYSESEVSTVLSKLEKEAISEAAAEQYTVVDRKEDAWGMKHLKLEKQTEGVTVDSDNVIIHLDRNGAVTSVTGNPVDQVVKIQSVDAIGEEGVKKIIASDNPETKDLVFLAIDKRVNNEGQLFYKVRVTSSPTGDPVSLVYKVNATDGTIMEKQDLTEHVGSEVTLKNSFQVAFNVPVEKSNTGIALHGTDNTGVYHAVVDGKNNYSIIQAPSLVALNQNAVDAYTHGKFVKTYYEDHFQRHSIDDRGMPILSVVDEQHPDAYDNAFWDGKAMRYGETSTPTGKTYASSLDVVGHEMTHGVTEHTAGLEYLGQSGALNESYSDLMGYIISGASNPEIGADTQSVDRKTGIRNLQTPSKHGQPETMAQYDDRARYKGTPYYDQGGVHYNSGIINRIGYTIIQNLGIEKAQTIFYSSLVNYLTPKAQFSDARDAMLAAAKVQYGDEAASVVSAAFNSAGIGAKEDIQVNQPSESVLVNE
# E. faecalis [2] = test: Bactericidal assay of LL-37 after incubation with P. aeruginosa elastase; type: cell-based, Enterococcus faecalis; settings: 0.1 μg LL-37, E. faecalis 2×10^6 cfus/ml, 2 h, 37° C.
# [3] = biological target: T3, S. pyogenes cysteine proteinase (Streptococcus pyogenes, UniProt P0C0J0)
# LL-37 = biological target: T4, LL-37 (Homo sapiens, UniProt P49913); test: Slot-binding assay: iodinated dermatan sulphate (DS36) binding to LL-37 on nitrocellulose, competition; settings: LL-37 0.2-5 μg on nitrocellulose
# T4 sequence (P49913 134-170 limits assumed): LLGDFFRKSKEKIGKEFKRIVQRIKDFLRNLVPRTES
# Protocol: LL-37 (0.2-5 μg) was applied onto nitrocellulose and incubated with iodinated dermatan sulphate (DS36). Different polysaccharides were added for competition of binding. DS36, DS18, DS13 (dermatan sulphate 36, 18, and 13), CS4 and CS6 (chondroitin sulphate 4 and 6), CS-D (chondroitin sulphate D) and CS-E (chondroitin sulphate E).
# LL-37 (0.2-5 μg) was applied onto nitrocellulose and incubated with iodinated dermatan sulphate (DS36). Different cationic substances, as indicated on top of the various panels, were added for competition of binding. (a), p-1-lys; poly-L-lysine, p-1-arg; poly-L-arginine, DEAE; DEAE-dextran, PB; polybrene. (b), CH; chitosan, PEI, polyethyleneimine, PM; protamine, PMX; polymyxin B, PMXnp; polymyxin B nonapeptide.
# Radioiodination of DS36 was performed according to previous protocols (F Cheng, K. Yoshida, D. Heinegard, L. Å. Fransson, Glycobiology, 2, 553 (1992)). Slot-binding assays were carried out as follows: α-defensin peptide I (Bachem, Switzerland) was blotted onto nitrocellulose membranes (Hybond, Amersham). Membranes were blocked (PBS, pH 7.4, 0.25% Tween 20, 3% bovine serum albumin) for 1 h and incubated with radiolabelled DS (˜20 μl/ml) for 1 h in the same buffer. Unlabelled polysaccharides were added for competition of binding (2 mg/ml). The membranes were washed (3×10 min) (PBS, pH 7.4, 0.25% Tween 20). Bas 2000 radioimaging system (Fuji) was used for visualization of radioactivity.
# LL-37 (0.2-5 μg) was applied onto nitrocellulose and incubated with iodinated dermatan sulphate (DS36). Different polysaccharides were added for competition of binding: DS36, DS18, DS13, CS-4, CS-6, CS-D (chondroitin sulphate D) and CS-E (chondroitin sulphate E). […] Radiolabelled DS was, however, displaced by DS-36, DS18, DS13 and CS-E.
# The effects of various cationic molecules on the DS-LL-37 interaction were monitored using slot-blot assays as described in Example 2. DS binding to LL-37 was blocked by poly-L-lysine, poly-L-arginine, DEAE-dextran, polybrene, chitosan and polyethyleneimine.
# P. aeruginosa elastase = settings: 1 hour; for Inhibition of LL-37 degradation by P. aeruginosa elastase by sulphated saccharides: 1 μg LL-37, 12 mU elastase, 15 μl 10 mM Tris-buffer; for Inhibition of LL-37 degradation by P. aeruginosa elastase: 12 mU elastase
# E. faecalis gelatinase [4] = biological target: T5, E. faecalis gelatinase (Enterococcus faecalis, UniProt Q833V7); type: biochemical; settings: 6 mU gelatinase, 1 hour
# T5 construct: The E. faecalis strain contained gelatinase and supernatants were used directly; made in house; host or cells: Enterococcus faecalis isolate from a chronic venous wound (natural producer); unpurified culture supernatant
# P. aeruginosa = test: Anti-microbial assay (CFU) with α-defensin 1 with or without GAG chains; type: cell-based, Pseudomonas aeruginosa; settings: 4 h, 37° C.
# S. pyogenes = test: as above; settings: 2 h, 37° C.
# Protocol: (§1) FIG. 1A illustrates the killing of bacteria by α-defensin. 2×10^6 CFU/ml of S. pyogenes (□) E. faecalis (●) and P. aeruginosa (◯) were incubated with α-defensin at the indicated peptide concentrations for 2 h (S. pyogenes and E. faecalis) or 4 h (P. aeruginosa) at 37° C., and CFU were determined.
# (§2) For anti-microbial assays S. pyogenes, E. faecalis and P. aeruginosa were grown to mid-log phase in TH-medium. Bacteria were washed and diluted in 10 mM Tris-HCl, pH 7.5, containing 5 mM glucose. 50 μl bacteria (2×10^6 cfu/ml) were incubated with α-defensin at concentrations ranging from 0-40 μg/ml with or without the addition of various GAG chains at concentrations of 2-400 μg/ml. Incubations were carried out at 37° C. for 2 h (S. pyogenes and E. faecalis) or 4 h (P. aeruginosa). To quantitate the microbicidal activity serial dilutions of the incubation mixture were plated on TH agar, incubated at 37° C. over night and the number of CFU were determined.
# E. faecalis [5] = test: as above; settings: 2 h, 37° C.
# Protocol: as §1, §2
# [6] = biological target: T3, S. pyogenes cysteine proteinase; remark: listed apart in the source
# Target sequence in this assay (P0C0J0 146-398 limits assumed): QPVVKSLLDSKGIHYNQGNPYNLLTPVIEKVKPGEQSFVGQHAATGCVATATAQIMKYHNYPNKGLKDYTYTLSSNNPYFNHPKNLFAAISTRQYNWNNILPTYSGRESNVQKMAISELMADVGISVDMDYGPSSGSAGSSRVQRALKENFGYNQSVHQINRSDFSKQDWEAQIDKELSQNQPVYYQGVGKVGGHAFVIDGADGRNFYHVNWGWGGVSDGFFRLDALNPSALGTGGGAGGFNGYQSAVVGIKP
compound,measurement,setting,value
dextran,Competition of radiolabelled DS binding to α-defensin 1 by unlabelled polysaccharide,α-defensin 1,not
LL-37: cationic antimicrobial peptide LL-37 (SEQ ID NO: 1),Degradation of LL-37 by E. faecalis gelatinase,E. faecalis gelatinase [1],degradation of LL-37 by bacterial proteinases
same,Bactericidal activity of LL-37 after incubation with P. aeruginosa elastase,E. faecalis [2],inactivated
same,Degradation of LL-37 by S. pyogenes cysteine proteinase,[3],degradation of LL-37 by bacterial proteinases
poly-L-arginine,Effect of cationic molecules on DS binding to LL-37,LL-37,blocked
"CC(=O)NC1C(O)OC(COS(=O)(=O)O)C(OS(=O)(=O)O)C1OC1OC(C(=O)O)=CC(O)C1OS(=O)(=O)O [ΔUA(2S)-GalNAc(4,6S)]",Inhibition of LL-37 degradation by P. aeruginosa elastase by sulphated saccharides,P. aeruginosa elastase,inhibited the degradation
"CNC(=O)[C@H](Cc1c[nH]c2ccccc12)NC(=O)[C@@H](CC(=O)NO)CC(C)C [GM6001, reference compound]",Inhibition of LL-37 degradation by E. faecalis gelatinase,E. faecalis gelatinase [4]; inhibitor 100 μM,Degradation was abolished
same,Inhibition of LL-37 degradation by P. aeruginosa elastase,P. aeruginosa elastase; inhibitor 100 μM,Degradation was abolished
chitosan,Effect of cationic molecules on DS binding to LL-37,LL-37,blocked
"α-defensin 1: cationic antimicrobial peptide α-defensin (SEQ ID NO: 2), from Bachem",α-defensin 1 concentration at which bacteria were effectively killed,P. aeruginosa,≥ 4 µg/mL
same,α-defensin 1 concentration at which bacteria were effectively killed,S. pyogenes,≥ 4 µg/mL
same,α-defensin 1 concentration at which bacteria were effectively killed,E. faecalis [5],≥ 4 µg/mL
DEAE-dextran,Effect of cationic molecules on DS binding to LL-37,LL-37,blocked
O=S(=O)(O)OC[C@H]1O[C@@](COS(=O)(=O)O)(O[C@H]2O[C@H](COS(=O)(=O)O)[C@@H](OS(=O)(=O)O)[C@H](OS(=O)(=O)O)[C@H]2OS(=O)(=O)O)[C@@H](OS(=O)(=O)O)[C@@H]1OS(=O)(=O)O [sucroseoctasulphate],Inhibition of LL-37 degradation by P. aeruginosa elastase by sulphated saccharides,P. aeruginosa elastase,inhibited the degradation
polybrene,Effect of cationic molecules on DS binding to LL-37,LL-37,blocked
polymyxin B nonapeptide [reference compound],Effect of cationic molecules on DS binding to LL-37,LL-37,did not block the binding
"c1cnc2c(c1)ccc1cccnc12 [1,10-phenantroline, reference compound]",Inhibition of LL-37 degradation by E. faecalis gelatinase,E. faecalis gelatinase [4]; inhibitor 2 mM,Degradation was abolished
same,Inhibition of LL-37 degradation by P. aeruginosa elastase,P. aeruginosa elastase; inhibitor 2 mM,Degradation was abolished
protamine [reference compound],Effect of cationic molecules on DS binding to LL-37,LL-37,Reduced levels of binding
CC(C)C[C@H](NC(=O)[C@H]1O[C@@H]1C(=O)O)C(=O)NCCCCN=C(N)N [E64],Effect on degradation of decorin and high molecular weight proteoglycans by S. pyogenes extracellular products,[6],completely blocked the effect
same,Effect on degradation of decorin by S. pyogenes cysteine proteinase,[6],abolished degradation
same,Inhibition of LL-37 degradation by S. pyogenes cysteine proteinase,[3],Degradation was abolished
dextran sulfate,Competition of radiolabelled DS binding to α-defensin 1 by unlabelled polysaccharide,α-defensin 1,displaced the radiolabelled DS
Polymyxin B [reference compound],Effect of cationic molecules on DS binding to LL-37,LL-37,did not block the binding
heparin [reference compound],Competition of radiolabelled DS binding to α-defensin 1 by unlabelled polysaccharide,α-defensin 1,displaced the radiolabelled DS
poly-L-lysine,Effect of cationic molecules on DS binding to LL-37,LL-37,blocked
polyethyleneimine,Effect of cationic molecules on DS binding to LL-37,LL-37,blocked
